Each block holds one compound with its values, some of them ahead of it.
Key:
MR = molecular target: T1, MR (Homo sapiens, UniProt P08235); test: Luciferase reporter assay for MR (HEK293T cells); type: cell-based; details: 0.4–10 μM, 5 nM aldosterone
T1 construct: host or cells: HEK293T
T1 sequence (P08235 1-984): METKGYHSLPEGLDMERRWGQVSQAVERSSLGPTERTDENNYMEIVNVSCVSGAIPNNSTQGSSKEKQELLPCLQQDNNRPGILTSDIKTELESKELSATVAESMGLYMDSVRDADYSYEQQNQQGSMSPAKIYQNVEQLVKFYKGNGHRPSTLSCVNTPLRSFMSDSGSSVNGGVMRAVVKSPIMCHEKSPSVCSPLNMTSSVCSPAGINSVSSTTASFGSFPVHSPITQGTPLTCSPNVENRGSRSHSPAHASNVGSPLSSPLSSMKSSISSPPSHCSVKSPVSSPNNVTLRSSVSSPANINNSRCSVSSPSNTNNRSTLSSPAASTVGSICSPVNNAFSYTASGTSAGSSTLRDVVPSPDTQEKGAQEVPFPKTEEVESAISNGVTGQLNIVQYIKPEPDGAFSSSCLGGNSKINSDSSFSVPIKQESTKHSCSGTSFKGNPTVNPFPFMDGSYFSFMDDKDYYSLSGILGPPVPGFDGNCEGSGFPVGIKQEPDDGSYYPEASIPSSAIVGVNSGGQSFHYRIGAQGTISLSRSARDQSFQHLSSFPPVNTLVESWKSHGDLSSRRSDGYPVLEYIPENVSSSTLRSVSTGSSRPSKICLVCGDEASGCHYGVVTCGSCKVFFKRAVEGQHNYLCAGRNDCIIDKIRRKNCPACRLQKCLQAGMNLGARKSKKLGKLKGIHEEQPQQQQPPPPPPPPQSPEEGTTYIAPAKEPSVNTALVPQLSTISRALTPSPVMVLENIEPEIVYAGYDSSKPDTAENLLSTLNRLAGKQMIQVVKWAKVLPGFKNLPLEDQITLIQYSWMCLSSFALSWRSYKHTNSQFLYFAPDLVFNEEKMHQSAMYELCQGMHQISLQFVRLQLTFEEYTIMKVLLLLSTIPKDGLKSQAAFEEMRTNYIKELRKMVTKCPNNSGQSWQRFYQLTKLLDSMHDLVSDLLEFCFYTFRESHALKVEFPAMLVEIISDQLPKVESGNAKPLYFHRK
Procedure: (§1) Luciferase Reporter Assays for PR, GR, and MR
(§2) PC3, HeLa, and HEK293T cells were cultured using 5% CSS RPMI-1640, 5% CSS RPMI-1640 and 10% FBS DMEM media in 96-well plates for 24 h, respectively. For PR induction, PC3 (1 × 10^4 cells/well) were transfected with 50 ng pcDNA3-PRB (#89130, Addgene), 24 ng pGL4.36[luc2P MMTV Hygro] (Promega) and 5 ng Renilla using HG-TransGeneTM transfection reagent (#TG-10012, Genomeditech) for 4 h. For GR induction, Hela (1 × 10^4 cells/well) were transfected with 71 ng pCMV -GR11 (#89105, Addgene), 24 ng pGL4.36[luc2P MMTV Hygro] (Promega) and 5 ng Renilla using lip3000 transfection reagent (#L3000075, Thermofisher) for 24 h. For MR induction, HEK293T (1 × 10^4 cells/well) were transfected with 71 ng pCMV-MR gifted by Liu et al. 28, 24 ng of pGL4.36[luc2P MMTV Hygro] (Promega) and 5 ng Renilla using lip3000 transfec tion reagent for 24 h. For the antagonistic models, 10 nM /well progesterone for PC3 cells , 1 nM/well dexamethasone for HeLa, and 5 nM/well aldosterone for HEK293T cells were added to stimulate the cells. Meanwhile, each cell line was treated with a series concentration of compounds (0.4, 2, and 10 μM). For the agonistic models, the cells were directly treated with the compounds without any hormones. Endogenous hormones progesterone, dexamethasone, and aldosterone were considered as agonists for PR, GR, and MR, respectively. The luciferase activities were assessed using the Dual-Glo Luciferase system (#E1910, Promega). […]

GR = molecular target: T2, GR (Homo sapiens, UniProt P04150); test: Luciferase reporter assay for GR (HeLa cells); type: cell-based; details: 0.4 μM, 1 nM dexamethasone
T2 construct: host or cells: HeLa
T2 sequence (P04150 1-777): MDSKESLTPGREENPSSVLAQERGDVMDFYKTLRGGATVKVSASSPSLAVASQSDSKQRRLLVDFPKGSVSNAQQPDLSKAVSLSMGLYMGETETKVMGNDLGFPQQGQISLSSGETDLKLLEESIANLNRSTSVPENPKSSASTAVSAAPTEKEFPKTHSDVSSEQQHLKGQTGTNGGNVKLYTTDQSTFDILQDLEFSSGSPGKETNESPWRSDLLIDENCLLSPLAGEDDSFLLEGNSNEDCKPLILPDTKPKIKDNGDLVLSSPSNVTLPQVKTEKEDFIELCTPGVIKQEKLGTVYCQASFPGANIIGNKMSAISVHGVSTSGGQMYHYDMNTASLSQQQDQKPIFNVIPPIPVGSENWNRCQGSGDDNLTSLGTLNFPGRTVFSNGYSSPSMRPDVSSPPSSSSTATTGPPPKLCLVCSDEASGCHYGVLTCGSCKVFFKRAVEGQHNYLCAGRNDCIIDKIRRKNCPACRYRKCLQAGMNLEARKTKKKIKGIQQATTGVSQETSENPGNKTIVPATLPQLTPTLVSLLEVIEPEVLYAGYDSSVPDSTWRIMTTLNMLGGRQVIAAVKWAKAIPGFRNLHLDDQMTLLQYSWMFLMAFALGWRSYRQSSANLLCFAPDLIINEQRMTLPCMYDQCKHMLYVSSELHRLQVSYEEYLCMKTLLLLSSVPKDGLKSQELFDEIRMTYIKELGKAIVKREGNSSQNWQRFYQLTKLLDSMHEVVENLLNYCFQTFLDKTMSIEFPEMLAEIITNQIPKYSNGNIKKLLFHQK
Procedure: calculating volume (V= 0.5 × L × W2). Finally, the mice were sacrificed and the tumors were harvested for hematoxylin and eosin (H&E) staining.
as §1
Addgene), 24 ng pGL4.36[luc2P MMTV Hygro] (Promega) and 5 ng Renilla using HG- […]
Addgene), 24 ng pGL4.36[luc2P MMTV Hygro] (Promega) and 5 ng Renilla using lip3000 transfection reagent (#L3000075, Thermofisher) for 24 h. For MR induction, HEK293T (1 × 10^4 cells/well) were transfected with 71 ng pCMV-MR gifted by Liu et al. 28, 24 ng of pGL4.36[luc2P MMTV Hygro] (Promega) and 5 ng Renilla using lip3000 transfec tion reagent for 24 h. For the antagonistic models, 10 nM /well progesterone for PC3 cells , 1 nM/well dexamethasone for HeLa, and 5 nM/well aldosterone for HEK293T cells were added to stimulate the cells. Meanwhile, each cell line was treated […]
For the agonistic models, the cells were directly treated with the compounds without any hormones. […]
hormones progesterone, dexamethasone, and aldosterone were considered as agonists for PR, GR, and MR, respectively. The luciferase activities were assessed using the Dual-Glo Luciferase system (#E1910, Promega).
Cell Cycle and Apoptosis for LNCaP cells
LNCaP were cultured in 6-well plate with 5× 10^5 cells/well, after incubated at 37 °C for […]
Cell cycle were determined after 48 h incubation by Cell Cycle Staining Kit (#CCS012, MULTI SCIENCES) using […]

PR = molecular target: T3, PR (Homo sapiens, UniProt P06401); test: Luciferase reporter assay for PR (PC3 cells); type: cell-based; details: 0.4 μM, 10 nM progesterone
T3 construct: host or cells: PC3
T3 sequence (P06401 1-933): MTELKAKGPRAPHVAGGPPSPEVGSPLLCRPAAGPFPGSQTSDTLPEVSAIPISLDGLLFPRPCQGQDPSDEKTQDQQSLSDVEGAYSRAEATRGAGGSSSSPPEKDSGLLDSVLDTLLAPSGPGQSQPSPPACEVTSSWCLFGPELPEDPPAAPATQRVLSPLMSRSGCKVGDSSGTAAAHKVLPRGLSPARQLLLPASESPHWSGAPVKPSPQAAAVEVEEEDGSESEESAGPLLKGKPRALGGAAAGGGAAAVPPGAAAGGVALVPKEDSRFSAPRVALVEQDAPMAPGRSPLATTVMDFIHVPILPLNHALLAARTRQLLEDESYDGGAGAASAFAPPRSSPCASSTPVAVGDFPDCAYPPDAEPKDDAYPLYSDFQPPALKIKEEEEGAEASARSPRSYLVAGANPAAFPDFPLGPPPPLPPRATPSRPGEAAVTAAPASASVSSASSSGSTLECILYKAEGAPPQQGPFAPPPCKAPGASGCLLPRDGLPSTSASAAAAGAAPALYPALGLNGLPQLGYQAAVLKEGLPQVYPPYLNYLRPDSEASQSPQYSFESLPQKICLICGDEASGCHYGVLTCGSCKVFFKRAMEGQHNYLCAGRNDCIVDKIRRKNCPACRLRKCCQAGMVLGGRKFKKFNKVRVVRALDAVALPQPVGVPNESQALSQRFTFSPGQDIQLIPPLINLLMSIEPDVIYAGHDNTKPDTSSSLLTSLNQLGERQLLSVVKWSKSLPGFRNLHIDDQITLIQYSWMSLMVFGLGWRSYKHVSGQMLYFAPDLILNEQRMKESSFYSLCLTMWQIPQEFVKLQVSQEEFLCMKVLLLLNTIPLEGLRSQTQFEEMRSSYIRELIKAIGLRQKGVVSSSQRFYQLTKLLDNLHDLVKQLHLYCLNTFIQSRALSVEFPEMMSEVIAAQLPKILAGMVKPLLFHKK
Procedure: as §1, §2

[1] = molecular target: wild type androgen receptor ligand-binding domain (AR LBD) (human); test: cross-linking + other: SAXS; chemical cross-linking coupled with mass spectrometry (CXMS) of purified AR LBD; ensemble refinement against the cross-link restraints; dimer to monomer ratio fitted; with and without M17-B15

MR antagonistic activity (MR): potent
Compound: CC(=O)S[C@@H]1CC2=CC(=O)CC[C@]2(C)[C@H]2CC[C@@]3(C)[C@@H](CC[C@@]34CCC(=O)O4)[C@H]12 [abbolactone]

Compound: CC#C[C@]1(O)CC[C@H]2[C@@H]3CCC4=CC(=O)CCC4=C3[C@@H](c3ccc(N(C)C)cc3)C[C@@]21C [mifepristone]
GR antagonistic activity (GR): > 90% | PR antagonistic activity (PR): > 90%

proportion of the dimer (with M17-B15) [1]: 15% | proportion of the dimer (without M17-B15) [1]: 20%
Compound: wild type androgen receptor ligand-binding domain (AR LBD) (domain or fragment)

Source: publication PMC10141604, “Small-Molecule Inhibition of Androgen Receptor Dimerization as a Strategy against Prostate Cancer” (ACS Central Science, 2023)
